In patent EP4745137A1 (Gluetacs Therapeutics (Shanghai) Co., Ltd., priority 2023, dated 2025):

How the values were obtained:
WEE1 = target: T1, WEE1 (Homo sapiens, UniProt P30291+Q96SW2); test: Western-blot assay of substrate protein degradation in hPBMCs, WEE1; assay type: cell-based; conditions: 24 hours of compound treatment, compounds tested at 50 nM and 500 nM (concentration of the table not stated)
T1 construct: endogenous in cells; host or cells: hPBMCs (Milecell Biotechnologies)

IKZF1 = target: T2, IKZF1 (Homo sapiens, UniProt Q13422+Q96SW2); test: Western-blot assay of substrate protein degradation in hPBMCs, IKZF1; assay type: cell-based; conditions: 24 hours of compound treatment, compounds tested at 50 nM and 500 nM (concentration of the table not stated)
T2 construct: endogenous in cells; host or cells: hPBMCs (Milecell Biotechnologies)

IKZF2 = target: T3, IKZF2 (Homo sapiens, UniProt Q96SW2+Q9UKS7); test: Western-blot assay of substrate protein degradation in hPBMCs, IKZF2; assay type: cell-based; conditions: 24 hours of compound treatment, compounds tested at 50 nM and 500 nM (concentration of the table not stated)
T3 construct: endogenous in cells; host or cells: hPBMCs (Milecell Biotechnologies)

IKZF3 = target: T4, IKZF3 (Homo sapiens, UniProt Q96SW2+Q9UKT9); test: Western-blot assay of substrate protein degradation in hPBMCs, IKZF3; assay type: cell-based; conditions: 24 hours of compound treatment, compounds tested at 50 nM and 500 nM (concentration of the table not stated)
T4 construct: endogenous in cells; host or cells: hPBMCs (Milecell Biotechnologies)

CK1α = target: T5, CK1α (Homo sapiens, UniProt P48729+Q96SW2); test: Western-blot assay of substrate protein degradation in hPBMCs, CK1α; assay type: cell-based; conditions: 24 hours of compound treatment, compounds tested at 50 nM and 500 nM (concentration of the table not stated)
T5 construct: endogenous in cells; host or cells: hPBMCs (Milecell Biotechnologies)

GSPT1 = target: T6, GSPT1 (Homo sapiens, UniProt P15170+Q96SW2); test: Western-blot assay of substrate protein degradation in hPBMCs, GSPT1; assay type: cell-based; conditions: 24 hours of compound treatment, compounds tested at 50 nM and 500 nM (concentration of the table not stated)
T6 construct: endogenous in cells; host or cells: hPBMCs (Milecell Biotechnologies)

[1] = target: T7, human Cereblon WT GST-tagged protein (Homo sapiens, UniProt Q96SW2); test: CRBN-binding affinity by HTRF (CEREBLON BINDING kit); conditions: HTRF inhibitory activity, CEREBLON BINDING kit; read-out: HTRF IC50
T7 construct: purchased CISBIO 64BDCRBNPEH

SR = test: Tumor cell proliferation inhibition (CellTiter-Meiluncell Luminescent Cell Viability Assay), SR; conditions: Homo sapiens, read-out: inhibitory activity (IC50, nM) against tumor cells proliferation, SR
Procedure: (§1) The tumor cells used herein were cultured in a cell culture medium listed in table 2 at 37°C in an incubator with 5% CO2. Prior to experimentation, all cell lines used were correctly identified by STR profiling, and tested negative for mycoplasma contamination using a mycoplasma detection kit through routine screenings.
(§2) On the following day, the test compounds of the present disclosure were subjected to serial dilution. […] Subsequently, 0.5 µL of the test compound dilution was transferred into the 96-well plate containing the cells, with each well containing 100 µL of cell culture medium. […] Into the 96-well plate, the diluted test compounds and corresponding detection reagents were added, resulting in final test compound concentrations of 500 nM and 10 nM, respectively.
(§3) After the cells were treated with the compounds of the present disclosure for a specified period (the treatment durations were shown in Table 3), the cell viability assay reagent was added to the culture medium according to the kit's instructions to determine cell viability. […] All controls were treated using the same procedure as the compounds of the present disclosure. The growth inhibition curves for the compounds of the present disclosure were plotted using Prism GraphPad software, and the IC50 values were calculated therefrom.

MM.1S = test: Tumor cell proliferation inhibition (CellTiter-Meiluncell Luminescent Cell Viability Assay), MM.1S; conditions: Homo sapiens, MM1.S, read-out: inhibitory activity (IC50, nM) against tumor cells proliferation, MM.1S
Procedure: as §1, §2, §3

Jurkat = test: Tumor cell proliferation inhibition (CellTiter-Meiluncell Luminescent Cell Viability Assay), Jurkat; conditions: Homo sapiens, read-out: inhibitory activity (IC50, nM) against tumor cells proliferation, Jurkat
Procedure: as §1
(§4) On the following day, the test compounds of the present disclosure were subjected to serial dilution. […] Subsequently, 0.5 µL of the test compound dilution was transferred into the 96-well plate containing the cells, with each well containing 100 µL of cell culture medium. […] Into the 96-well plate, the diluted test compounds and corresponding detection reagents were added, resulting in final test compound concentrations of 500 nM and 10 nM, respectively. The experimental procedure is described below using the diluted 2 µM test compound as an example.
as §3

NCI-H1975 = test: Tumor cell proliferation inhibition (CellTiter-Meiluncell Luminescent Cell Viability Assay), NCI-H1975; conditions: Homo sapiens, NCI-H1975, read-out: inhibitory activity (IC50, nM) against tumor cells proliferation, H1975
Procedure: as §1, §4, §3

TMD8 = test: Tumor cell proliferation inhibition (CellTiter-Meiluncell Luminescent Cell Viability Assay), TMD8; conditions: Homo sapiens, TMD8, read-out: inhibitory activity (IC50, nM) against tumor cells proliferation, TMD8

T2 sequence (Q13422 whole entry): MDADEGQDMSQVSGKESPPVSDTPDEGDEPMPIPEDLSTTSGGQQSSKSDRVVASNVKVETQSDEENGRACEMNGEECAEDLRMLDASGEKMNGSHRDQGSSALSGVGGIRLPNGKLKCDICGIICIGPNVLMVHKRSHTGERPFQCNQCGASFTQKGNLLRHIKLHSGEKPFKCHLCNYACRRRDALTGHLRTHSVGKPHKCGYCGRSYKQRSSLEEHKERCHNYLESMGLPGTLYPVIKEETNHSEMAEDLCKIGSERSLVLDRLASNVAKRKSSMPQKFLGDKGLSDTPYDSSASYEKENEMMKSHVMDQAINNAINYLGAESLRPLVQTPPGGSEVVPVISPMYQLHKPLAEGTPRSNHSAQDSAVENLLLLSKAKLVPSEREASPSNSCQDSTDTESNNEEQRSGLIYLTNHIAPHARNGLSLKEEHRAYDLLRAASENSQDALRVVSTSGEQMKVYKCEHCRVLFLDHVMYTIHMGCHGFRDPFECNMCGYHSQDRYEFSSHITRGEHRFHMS
T2 sequence (Q96SW2 whole entry): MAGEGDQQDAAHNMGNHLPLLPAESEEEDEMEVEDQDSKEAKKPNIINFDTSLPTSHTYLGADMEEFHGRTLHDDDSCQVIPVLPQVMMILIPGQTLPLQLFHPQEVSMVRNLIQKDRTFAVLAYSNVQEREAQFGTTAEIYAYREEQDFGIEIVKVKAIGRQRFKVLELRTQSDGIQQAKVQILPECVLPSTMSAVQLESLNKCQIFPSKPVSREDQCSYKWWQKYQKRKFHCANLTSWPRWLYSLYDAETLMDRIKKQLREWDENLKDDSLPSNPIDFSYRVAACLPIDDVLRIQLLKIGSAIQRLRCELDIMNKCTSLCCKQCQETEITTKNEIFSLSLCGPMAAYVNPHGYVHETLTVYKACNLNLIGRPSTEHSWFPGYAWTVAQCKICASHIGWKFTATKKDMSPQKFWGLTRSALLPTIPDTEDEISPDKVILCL
T2 sequence (Q16531 whole entry partner): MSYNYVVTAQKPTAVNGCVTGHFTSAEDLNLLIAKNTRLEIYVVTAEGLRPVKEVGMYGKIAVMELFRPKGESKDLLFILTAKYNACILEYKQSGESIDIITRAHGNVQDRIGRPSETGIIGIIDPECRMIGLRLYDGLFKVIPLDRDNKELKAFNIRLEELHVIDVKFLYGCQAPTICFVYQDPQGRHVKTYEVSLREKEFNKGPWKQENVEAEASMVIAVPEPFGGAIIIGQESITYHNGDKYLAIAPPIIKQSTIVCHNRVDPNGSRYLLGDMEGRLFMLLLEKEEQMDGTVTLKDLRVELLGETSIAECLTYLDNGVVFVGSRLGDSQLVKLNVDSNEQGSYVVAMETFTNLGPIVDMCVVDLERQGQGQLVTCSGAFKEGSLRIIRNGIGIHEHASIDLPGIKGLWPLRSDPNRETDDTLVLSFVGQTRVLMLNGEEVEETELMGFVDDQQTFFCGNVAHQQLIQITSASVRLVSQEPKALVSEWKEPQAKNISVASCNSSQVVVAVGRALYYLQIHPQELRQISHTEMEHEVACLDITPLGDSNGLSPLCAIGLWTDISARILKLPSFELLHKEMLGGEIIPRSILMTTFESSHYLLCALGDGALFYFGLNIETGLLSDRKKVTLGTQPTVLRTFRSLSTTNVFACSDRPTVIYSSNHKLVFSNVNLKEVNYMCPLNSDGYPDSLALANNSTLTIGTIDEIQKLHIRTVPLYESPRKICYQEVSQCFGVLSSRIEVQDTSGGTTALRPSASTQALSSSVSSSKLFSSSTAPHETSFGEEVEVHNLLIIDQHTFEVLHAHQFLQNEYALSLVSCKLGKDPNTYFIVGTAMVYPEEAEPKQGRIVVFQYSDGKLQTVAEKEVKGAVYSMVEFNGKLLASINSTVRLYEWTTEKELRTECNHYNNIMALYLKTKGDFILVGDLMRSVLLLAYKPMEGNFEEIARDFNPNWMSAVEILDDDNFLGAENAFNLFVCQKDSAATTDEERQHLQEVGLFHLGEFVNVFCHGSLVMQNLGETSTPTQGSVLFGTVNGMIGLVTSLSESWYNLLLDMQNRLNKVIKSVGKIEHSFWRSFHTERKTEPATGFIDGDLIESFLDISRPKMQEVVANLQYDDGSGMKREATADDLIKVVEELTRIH
T5 sequence (P48729 whole entry): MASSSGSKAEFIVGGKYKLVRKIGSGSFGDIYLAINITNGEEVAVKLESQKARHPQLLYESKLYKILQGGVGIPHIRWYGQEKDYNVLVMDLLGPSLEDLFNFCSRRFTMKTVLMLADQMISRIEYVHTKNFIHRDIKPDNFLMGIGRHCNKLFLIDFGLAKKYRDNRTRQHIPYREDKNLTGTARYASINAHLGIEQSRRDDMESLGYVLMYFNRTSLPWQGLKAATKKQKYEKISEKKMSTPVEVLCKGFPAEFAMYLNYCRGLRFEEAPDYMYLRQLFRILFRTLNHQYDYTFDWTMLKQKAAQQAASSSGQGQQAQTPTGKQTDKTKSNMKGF
T5 sequence (Q96SW2 whole entry): as the sequence (Q96SW2 whole entry) above
T5 sequence (Q16531 whole entry partner): as the sequence (Q16531 whole entry partner) above
T4 sequence (Q9UKT9 whole entry): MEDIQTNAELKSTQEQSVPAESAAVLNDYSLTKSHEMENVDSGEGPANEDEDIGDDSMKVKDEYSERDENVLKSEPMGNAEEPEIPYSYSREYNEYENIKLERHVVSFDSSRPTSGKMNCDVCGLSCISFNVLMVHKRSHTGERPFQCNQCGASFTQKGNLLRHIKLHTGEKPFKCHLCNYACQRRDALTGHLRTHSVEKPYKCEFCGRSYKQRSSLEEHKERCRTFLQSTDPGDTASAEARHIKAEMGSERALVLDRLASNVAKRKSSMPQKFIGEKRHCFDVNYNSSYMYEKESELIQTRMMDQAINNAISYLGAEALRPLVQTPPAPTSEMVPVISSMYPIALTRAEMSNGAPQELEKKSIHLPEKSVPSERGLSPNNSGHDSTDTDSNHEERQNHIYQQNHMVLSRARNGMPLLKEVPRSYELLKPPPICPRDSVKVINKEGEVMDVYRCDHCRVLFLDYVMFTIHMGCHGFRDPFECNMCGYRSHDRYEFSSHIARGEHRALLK
T4 sequence (Q96SW2 whole entry): as the sequence (Q96SW2 whole entry) above
T4 sequence (Q16531 whole entry partner): as the sequence (Q16531 whole entry partner) above
T7 sequence (Q96SW2 whole entry): as the sequence (Q96SW2 whole entry) above
T3 sequence (Q9UKS7 whole entry): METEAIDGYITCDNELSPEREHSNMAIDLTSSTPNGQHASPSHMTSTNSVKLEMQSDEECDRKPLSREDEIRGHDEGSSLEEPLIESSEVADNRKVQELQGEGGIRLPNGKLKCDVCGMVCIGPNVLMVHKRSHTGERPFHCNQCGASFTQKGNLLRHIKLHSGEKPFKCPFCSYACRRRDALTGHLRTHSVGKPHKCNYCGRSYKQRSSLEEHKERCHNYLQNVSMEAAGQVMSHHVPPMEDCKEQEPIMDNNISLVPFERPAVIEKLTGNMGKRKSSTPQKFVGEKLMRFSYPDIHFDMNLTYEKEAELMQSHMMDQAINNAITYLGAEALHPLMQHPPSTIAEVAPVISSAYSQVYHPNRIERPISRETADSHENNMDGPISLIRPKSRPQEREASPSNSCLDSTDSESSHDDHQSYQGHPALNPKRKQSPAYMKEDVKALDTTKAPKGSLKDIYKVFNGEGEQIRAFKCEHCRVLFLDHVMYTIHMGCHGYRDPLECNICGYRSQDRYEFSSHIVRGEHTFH
T3 sequence (Q96SW2 whole entry): as the sequence (Q96SW2 whole entry) above
T3 sequence (Q16531 whole entry partner): as the sequence (Q16531 whole entry partner) above
T6 sequence (P15170 whole entry): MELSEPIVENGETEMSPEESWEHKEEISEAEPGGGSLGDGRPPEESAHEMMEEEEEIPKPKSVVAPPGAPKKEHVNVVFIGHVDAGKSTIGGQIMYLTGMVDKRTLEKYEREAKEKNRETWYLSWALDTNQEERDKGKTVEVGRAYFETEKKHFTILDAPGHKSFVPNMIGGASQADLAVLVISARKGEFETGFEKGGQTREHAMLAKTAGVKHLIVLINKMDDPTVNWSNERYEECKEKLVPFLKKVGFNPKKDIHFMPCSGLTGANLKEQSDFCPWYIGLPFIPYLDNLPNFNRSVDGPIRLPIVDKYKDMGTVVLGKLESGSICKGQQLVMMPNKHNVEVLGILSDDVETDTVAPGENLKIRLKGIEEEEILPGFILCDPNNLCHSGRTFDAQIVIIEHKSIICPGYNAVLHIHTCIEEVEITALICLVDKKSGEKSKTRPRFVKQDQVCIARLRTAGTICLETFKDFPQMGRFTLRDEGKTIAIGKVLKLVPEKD
T6 sequence (Q96SW2 whole entry): as the sequence (Q96SW2 whole entry) above
T6 sequence (Q16531 whole entry partner): as the sequence (Q16531 whole entry partner) above

SMILES | Weel substrate protein remaining % (WEE1) | IKZF 1 substrate protein remaining % (IKZF1) | IKZF2 substrate protein remaining % (IKZF2) | IKZF3 substrate protein remaining % (IKZF3) | CK1a substrate protein remaining % (CK1α) | GSPT1 substrate protein remaining % (GSPT1) | IC50 [1] [nM] | IC50 (SR) [nM] | IC50 (MM.1S) [nM] | IC50 (Jurkat) [nM] | IC50 (NCI-H1975) [nM] | IC50 (TMD8) [nM]
O=C1CCC(N2Cc3cc(CN4CC=C(c5ncnc6sc7c(c56)CCC7)CC4)ccc3C2=O)C(=O)N1 (centres unmarked) [GT-04934, 3-(5-((4-(6,7-dihydro-5H-cyclopenta[4,5]thieno[2,3-d]pyrimidin-4-yl)-3,6-dihydropyridin-1(2H)-yl)methyl)-1-oxoisoindolin-2-yl)piperidine-2,6-dione] | A (0% ≤ substrate protein remaining % ≤ 80%) | A (0% ≤ substrate protein remaining % ≤ 80%) | A (0% ≤ substrate protein remaining % ≤ 80%) | A (0% ≤ substrate protein remaining % ≤ 80%) | A (0% ≤ substrate protein remaining % ≤ 80%) | A (0% ≤ substrate protein remaining % ≤ 80%) | < 500 | 100 to 500 | < 1 | 10 to 50 | 50 to 100 | 
O=C1CCC(N2Cc3cc(CN4CCN(c5nc(N6CCCCC6)nc6c5SCC6)CC4)ccc3C2=O)C(=O)N1 (centres unmarked) [GT-05380, 3-(1-oxo-5-((4-(2-(piperidin-1-yl)-6,7-dihydrothieno[3,2-d]pyrimidin-4-yl)piperazin-1-yl)methyl)isoindolin-2-yl)piperidine-2,6-dione] | A (0% ≤ substrate protein remaining % ≤ 80%) | A (0% ≤ substrate protein remaining % ≤ 80%) | A (0% ≤ substrate protein remaining % ≤ 80%) | A (0% ≤ substrate protein remaining % ≤ 80%) | A (0% ≤ substrate protein remaining % ≤ 80%) | A (0% ≤ substrate protein remaining % ≤ 80%) | 500 to 1000 |  | 1 to 5 |  |  | 10 to 50
O=C1CCC(N2Cc3cc(CN4CC=C(c5ncnc6sc7c(c56)CCCC7)CC4)ccc3C2=O)C(=O)N1 (centres unmarked) [GT-05266, 3-(1-oxo-5-((4-(5,6,7,8-tetrahydrobenzo[4,5]thieno[2,3-d]pyrimidin-4-yl)-3,6-dihydropyridin-1(2H)-yl)methyl)isoindolin-2-yl)piperidine-2,6-dione] | A (0% ≤ substrate protein remaining % ≤ 80%) | A (0% ≤ substrate protein remaining % ≤ 80%) | A (0% ≤ substrate protein remaining % ≤ 80%) | A (0% ≤ substrate protein remaining % ≤ 80%) | A (0% ≤ substrate protein remaining % ≤ 80%) | A (0% ≤ substrate protein remaining % ≤ 80%) | < 500 |  | 5 to 10 |  |  | 10 to 50
O=C1CCC(N2Cc3cc(CN4CCN(c5n[nH]c6cc(F)ccc56)CC4)ccc3C2=O)C(=O)N1 (centres unmarked) [GT-05264, 3-(5-((4-(6-fluoro-1H-indazol-3-yl)piperazin-1-yl)methyl)-1-oxoisoindolin-2-yl)piperidine-2,6-dione] | A (0% ≤ substrate protein remaining % ≤ 80%) | A (0% ≤ substrate protein remaining % ≤ 80%) | A (0% ≤ substrate protein remaining % ≤ 80%) | A (0% ≤ substrate protein remaining % ≤ 80%) | A (0% ≤ substrate protein remaining % ≤ 80%) | A (0% ≤ substrate protein remaining % ≤ 80%) | 500 to 1000 |  | 1 to 5 |  |  | 10 to 50
